Laboratory results reported in patent publication US20240174690A1, “ANNULATED 2-AMINO-3-CYANO THIOPHENES AND DERIVATIVES FOR THE TREATMENT OF CANCER” (BOEHRINGER INGELHEIM INTERNATIONAL GMBH, priority 2021, published 2024).

What was measured:
[1] = test system: KRAS G12D-dependent Ba/F3 cells; test: Ba/F3 proliferation assay, KRAS G12D; format: cell-based; conditions: Mus musculus, BaF3, 72 h, AlamarBlue
How it was run: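 IL-3-independent Ba/F3 lines carrying retrovirally introduced KRAS G12C, G12D or G12V; puromycin withdrawn ~10 days before assay. Duplicate treatments, AlamarBlue fluorescence readout, curve-fit analysis.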

LOVO cells = test: LOVO CTG proliferation assay (120 h) (CRC, G13D); format: cell-based; conditions: Homo sapiens, CTG 120 h
How it was run: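 IC50 comes from a four-parameter fit of CellTiter-Glo viability, expressed as RLU relative to DMSO wells. Compound exposure lasted 120 h in LOVO cells seeded the day before at 1000 cells/well in DMEM with 10% fetal calf serum.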

NCI-H2122 cells = test: NCI-H2122 CTG proliferation assay (120 h) (NSCLC, G12C); format: cell-based; conditions: Homo sapiens
How it was run: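 Proliferation was read by CellTiter-Glo luminescence after 120 h of compound exposure, starting one day after seeding 200 NCI-H2122 (G12C) cells per well in RPMI/10% FCS. RLU relative to DMSO wells gave percent viability, and four-parameter nonlinear regression gave IC50.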

[2] = Plasma protein binding assay (PPB), equilibrium dialysis, 10% FCS in PBS; format: in vitro ADME; conditions: bovine, read-out: PPB 10% FCS (% fu)
How it was run: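 Test compound (1-10 μmol/L) in 10% FCS in PBS was dialysed for 3-5 h at 37° C versus PBS ± dextran across a semipermeable membrane. LC-MS of both compartments after protein precipitation gave Cserum and Cbuffer, from which the unbound fraction fu was derived.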

SK-CO-1 cells = test: SK-CO-1 CTG proliferation assay (120 h) (CRC, G12V); format: cell-based; conditions: Homo sapiens; SK-CO-1 cells (CRC, G12V), CTG 120 h
How it was run: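 Compound exposure lasted 120 h in KRAS G12V SK-CO-1 cells seeded overnight at 500 cells/well in 10% FCS EMEM. CellTiter-Glo RLU normalised to DMSO wells gave percent viability, and a four-parameter model fit yielded IC50.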

CYP3A4 = CYP3A4 (Homo sapiens (Human), UniProt P08684); test: Mechanism based inhibition of CYP3A4 assay (MBI 3A4); format: in vitro ADME; conditions: hydroxy-midazolam formation after 30 min vs 0 min preincubation, 25 uM, human liver microsomes
Chain of CYP3A4 (P08684 whole entry): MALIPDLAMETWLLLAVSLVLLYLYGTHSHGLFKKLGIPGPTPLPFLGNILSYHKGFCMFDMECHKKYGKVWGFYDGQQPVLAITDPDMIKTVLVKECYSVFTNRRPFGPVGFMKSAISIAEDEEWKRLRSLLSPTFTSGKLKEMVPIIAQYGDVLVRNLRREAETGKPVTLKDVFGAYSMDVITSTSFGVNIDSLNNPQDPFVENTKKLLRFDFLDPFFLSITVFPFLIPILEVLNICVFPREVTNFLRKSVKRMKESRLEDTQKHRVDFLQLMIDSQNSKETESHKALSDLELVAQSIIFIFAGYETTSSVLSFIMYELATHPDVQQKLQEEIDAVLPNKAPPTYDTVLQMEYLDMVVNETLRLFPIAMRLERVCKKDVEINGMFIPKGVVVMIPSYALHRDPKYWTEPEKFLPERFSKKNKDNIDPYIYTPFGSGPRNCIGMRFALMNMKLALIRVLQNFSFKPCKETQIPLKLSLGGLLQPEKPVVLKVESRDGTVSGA
How it was run: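 Readout is hydroxy-midazolam formed after 30 min preincubation relative to 0 min, measured by LC/MS-MS after acetonitrile quench. Following preincubation, samples diluted 1:10 and incubated 15 min with midazolam substrate.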

| Compound | IC50 [1] | IC50 (LOVO cells) | IC50 (NCI-H2122 cells) | fraction unbound [2] | IC50 (SK-CO-1 cells) | MBI 3A4 (CYP3A4) |
| --- | --- | --- | --- | --- | --- | --- |
| C[C@H](Oc1cc(N2CCN(C)C3(COC3)C2)nc(-c2noc3c2CCC[C@@]32CCCc3sc(N)c(C#N)c32)n1)[C@@H]1CCCN1C [II-13] | 24 nM | 61 nM | 5020 nM | 0.24 | 896 nM | 70% |
| C[C@H](Oc1cc(N2CCNC3(CCC3)C2)nc(-c2onc3c2CCC[C@@]32CCCc3sc(N)c(C#N)c32)n1)[C@@H]1CCCN1C [I-3] | 5 nM | 2160 nM | 3370 nM | 0.68 | 2090 nM | 51% |
| C[C@H](Oc1cc(-n2ccnc2)nc(-c2onc3c2CCC[C@@]32CCCc3sc(N)c(C#N)c32)n1)[C@@H]1CCCN1C [I-20] | 30 nM | 298 nM | 1360 nM | 0.58 | 185 nM | 85% |
| C[C@H](Oc1cc(N2CC[C@H](N3CCCC3)C2)nc(-c2noc3c2CCC[C@@]32CCCc3sc(N)c(C#N)c32)n1)[C@@H]1CCCN1C [II-14] | 10 nM | 674 nM | 1390 nM | 0.16 | 771 nM | 83% |
| C[C@H](Oc1cc(N2C[C@H](C)N(C)[C@@H](C)C2)nc(-c2onc3c2CCC[C@@]32CCCc3sc(N)c(C#N)c32)n1)[C@@H]1CCCN1C [I-43] | 63 nM | 554 nM | 1410 nM | 0.73 | 892 nM | 64% |
| C[C@H](Oc1cc([C@@H]2CCN(C)C2)nc(-c2noc3c2CCC[C@@]32CCCc3sc(N)c(C#N)c32)n1)[C@@H]1CCCN1C [II-37] | 26 nM | 692 nM | 5500 nM | 0.71 | 562 nM | 81% |
| C[C@H](Oc1cc(-n2ccc(C(=O)NC3COC3)n2)nc(-c2noc3c2CCC[C@@]32CCCc3sc(N)c(C#N)c32)n1)[C@@H]1CCCN1C [II-25] | 25 nM | 63 nM | 33 nM | 0.15 | 3 nM | 77% |
| C[C@H](Oc1cc(-n2ccc(C(N)=O)n2)nc(-c2noc3c2CCC[C@@]32CCCc3sc(N)c(C#N)c32)n1)[C@@H]1CCCN1C [II-21] | 23 nM | 29 nM | 128 nM | 0.24 | 6 nM | 77% |
| C[C@H](Oc1cc(N2CC3CCC(C2)N3)nc(-c2noc3c2CCC[C@@]32CCCc3sc(N)c(C#N)c32)n1)[C@@H]1CCCN1C [II-34] | 51 nM | 2400 nM | 9010 nM | 0.37 | 1240 nM | 83% |
| C[C@H](Oc1cc(N2CCNC(C)(C)C2)nc(-c2noc3c2CCC[C@@]32CCCc3sc(N)c(C#N)c32)n1)[C@@H]1CCCN1C [II-32] | 3 nM | 8320 nM | 3300 nM | 0.31 | 704 nM | 79% |
| C[C@H](Oc1cc(-c2ccn([C@H]3CCCOC3)n2)nc(-c2noc3c2CCC[C@@]32CCCc3sc(N)c(C#N)c32)n1)[C@@H]1CCCN1C [II-42] | 26 nM | 149 nM | 357 nM | 0.1 | 38 nM | 63% |
| C[C@H](Oc1cc(-c2ccn(CC(C)(C)O)n2)nc(-c2onc3c2CCC[C@@]32CCCc3sc(N)c(C#N)c32)n1)[C@@H]1CCCN1C [I-26] | 48 nM | 281 nM | 1070 nM | 0.23 | 118 nM | 71% |
| CO[C@@H]1C[C@@H]([C@H](C)Oc2cc(-c3ccn(C)n3)nc(-c3onc4c3CCC[C@@]43CCCc4sc(N)c(C#N)c43)n2)N(C)C1 [I-23] | 27 nM | 79 nM | 8830 nM | 0.2 | 139 nM | 57% |
| C[C@H](Oc1cc(N2C[C@@H](N(C)C)[C@@H](O)C2)nc(-c2noc3c2CCC[C@@]32CCCc3sc(N)c(C#N)c32)n1)[C@@H]1CCCN1C [II-10] | 116 nM | 972 nM | 8440 nM | 0.69 | 1660 nM | 80% |
| Cc1nc(-c2cc(O[C@@H](C)[C@@H]3CCCN3C)nc(-c3onc4c3CCC[C@@]43CCCc4sc(N)c(C#N)c43)n2)cs1 [I-24] | 24 nM | 101 nM | 930 nM | 0.19 | 67 nM | 73% |
| C[C@H](Oc1cc(-n2ccnn2)nc(-c2onc3c2CCC[C@@]32CCCc3sc(N)c(C#N)c32)n1)[C@@H]1CCCN1C [I-32] | 14 nM | 159 nM | 1510 nM | 0.48 | 111 nM | 41% |
| C[C@H](Oc1cc(N2CCC(N(C)C)CC2)nc(-c2noc3c2CCC[C@@]32CCCc3sc(N)c(C#N)c32)n1)[C@@H]1CCCN1C [II-48] | 70 nM | 736 nM | 3100 nM | 0.62 | 1070 nM | 84% |
| C[C@H](Oc1cc(-c2ccn3ncnc3c2)nc(-c2onc3c2CCC[C@@]32CCCc3sc(N)c(C#N)c32)n1)[C@@H]1CCCN1C [I-33] | 81 nM | 574 nM | 1420 nM | 0.31 | 181 nM | 73% |
| Cc1ccc(-c2cc(O[C@@H](C)[C@@H]3CCCN3C)nc(-c3onc4c3CCC[C@@]43CCCc4sc(N)c(C#N)c43)n2)cn1 [I-28] | 250 nM | 390 nM | 2600 nM | 0.3 | 131 nM | 77% |
| C[C@H](Oc1cc(N2CC[C@H](N3CCCCC3)C2)nc(-c2noc3c2CCC[C@@]32CCCc3sc(N)c(C#N)c32)n1)[C@@H]1CCCN1C [II-12] | 20 nM | 401 nM | 1390 nM | 0.2 | 819 nM | 78% |
| C[C@H](Oc1cc(N2CCNC3(COC3)C2)nc(-c2noc3c2CCC[C@@]32CCCc3sc(N)c(C#N)c32)n1)[C@@H]1CCCN1C [II-31] | 4 nM | 182 nM | 2550 nM | 0.63 | 365 nM | 65% |
| C[C@H](Oc1cc(-c2cnsc2)nc(-c2onc3c2CCC[C@@]32CCCc3sc(N)c(C#N)c32)n1)[C@@H]1CCCN1C [I-27] | 64 nM | 265 nM | 599 nM | 0.21 | 52 nM | 50% |
